Laboratory results from patent US8450525B2, “Histone deacetylase inhibitors” (Orchid Chemicals & Pharmaceuticals Limited, priority 2007, dated 2013).

Experiments:
HCT 116 (colon) cells = test: Anti-cancer screen, growth inhibition (MTT); type: cell-based; settings: Homo sapiens, HCT-116 cells, 48 hours of incubation
In short: (§1)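 MTT added for 3 h at 37° C, formazan dissolved in DMSO and A570 read. A T0 plate was measured at compound addition.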

NCI-H460 (lung) cells = test: Anti-cancer screen, growth inhibition (MTT); type: cell-based; settings: Homo sapiens, 48 hours of incubation
In short: as §1

U251 (glioma) cells = test: Anti-cancer screen, growth inhibition (MTT); type: cell-based; settings: Homo sapiens, U-251 cells, 48 hours of incubation
In short: as §1

[1] = system: T1, HDAC (Mouse Liver Extract); test: HDAC inhibition assay using Boc-Lys(Ac)-AMC substrate, mouse liver enzyme; type: biochemical;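 for IC50: IC50 for inhibition of HDAC activity in mouse liver extract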
T1 construct: Mouse liver enzyme (10 mg/ml) was diluted 1:6 with HDAC buffer

GI50 (HCT 116 (colon) cells) [µM]	GI50 (NCI-H460 (lung) cells) [µM]	GI50 (U251 (glioma) cells) [µM]	HDAC Inhibition % (1 μM) [1] [%]	HDAC Inhibition % (10 μM) [1] [%]	IC50 [1] [µM]	SMILES
44	52	78	22.6	48.8		Nc1ccccc1NC(=O)/C=C/c1ccc(/C=C(/C(=O)NC2CC2)c2ccc3c(c2)OCO3)cc1 [Example 64, N-Cyclopropyl-3-(4-((1E)-3-(2-aminophenylamino)-3-oxoprop-1-en-1-yl}phenyl)-2-[benzodioxol-5-yl]-acrylamide]
> 100	80	82	31.2	56.2		Nc1ccccc1NC(=O)/C=C/c1ccc(/C=C(/C(=O)NC2CC2)c2ccccc2F)cc1 [Example 65, N-Cyclopropyl-3-(4-((1E)-3-(2-aminophenylamino)-3-oxoprop-1-en-1-yl}phenyl)-2-(2-fluorophenyl)acrylamide]
> 100	> 100	> 100	41.6	72.4		Nc1ccccc1NC(=O)/C=C/c1ccc(/C=C(/C(=O)NC2CC2)c2cccc(Cl)c2)cc1 [Example 66, N-Cyclopropyl-3-(4-((1E)-3-(2-aminophenylamino)-3-oxoprop-1-en-1-yl}phenyl)-2-(3-chlorophenyl)acrylamide]
36	40	> 100	31.5	59.5		Cc1ccc(/C(=C\c2ccc(/C=C/C(=O)Nc3ccccc3N)cc2)C(=O)NC2CC2)cc1 [Example 67, (E)-N-Cyclopropyl-3-(4-((1E)-3-(2-aminophenylamino)-3-oxoprop-1-en-1-yl}phenyl)-2-(4-methylphenyl)acrylamide]
94	74	> 100	25.5	54.4		COc1cccc(/C(=C\c2ccc(/C=C/C(=O)Nc3ccccc3N)cc2)C(=O)NC2CC2)c1 [Example 69, N-Cyclopropyl-3-(4-((1E)-3-(2-aminophenylamino)-3-oxoprop-1-en-1-yl}phenyl)-2-(3-methoxyphenyl)acrylamide]
> 100	> 100	> 100	34.0	36.0		Nc1ccccc1NC(=O)/C=C/c1ccc(/C=C(/C(=O)NC2CC2)c2ccccc2)cc1 [Example 70, N-Cyclopropyl-3-(4-((1E)-3-(2-aminophenylamino)-3-oxoprop-1-en-1-yl}phenyl)-2-phenylacrylamide]
> 100	> 100	0.6	28.0	37.0		Nc1ccccc1NC(=O)/C=C/c1ccc(/C=C(/C(=O)NC2CC2)c2cccs2)cc1 [Example 71, N-Cyclopropyl-3-(4-((1E)-3-(2-aminophenylamino)-3-oxoprop-1-en-1-yl}phenyl)-2-(thiophen-2-yl)acrylamide]
20	50	20	24.8	52.0		Nc1ccccc1NC(=O)/C=C/c1ccc(/C=C(/C(=O)N2CCOCC2)c2ccccc2F)cc1 [Example 72]
10.1	> 100	> 100	12.0	21.8		Nc1ccccc1NC(=O)/C=C/c1ccc(/C=C(/C(=O)NC2CC2)c2ccc(F)c(F)c2)cc1 [Example 73, N-Cyclopropyl-3-(4-((1E)-3-(2-aminophenylamino)-3-oxoprop-1-en-1-yl}phenyl)-2-(3,4-difluorophenyl)acrylamide]
100	> 100	90	12.3	12.1		COc1ccc(/C(=C\c2ccc(/C=C/C(=O)Nc3ccccc3N)cc2)C(=O)NC2CC2)cc1OC [Example 74, N-Cyclopropyl-3-(4-((1E)-3-(2-aminophenylamino)-3-oxoprop-1-en-1-yl}phenyl)-2-(3,4-dimethoxyphenyl)acrylamide]
23	38	30	70.3	94.4		O=C(/C=C/c1ccc(/C=C(/C(=O)NC2CC2)c2ccc(F)cc2)cc1)NCCCCCC(=O)NO [Example 75, 6-((1E)-3-(4-(3-(Cyclopropylamino)-2-(4-fluorophenyl)-3-oxoprop-1-en-1-yl)phenyl)acrylamido)-N-hydroxyhexanamide]
5	2.3	10.5	97.8	100.0	0.003	O=C(/C=C/c1ccc(/C=C(/C(=O)NC2CC2)c2ccccc2Cl)cc1)NCCCCCC(=O)NO [Example 77, 6-((1E)-3-(4-(3-(Cyclopropylamino)-2-(2-chlorophenyl)-3-oxoprop-1-en-1-yl)phenyl)acrylamido)-N-hydroxyhexanamide]
5.6	10.3	22	98.1	99.9		O=C(/C=C/c1ccc(/C=C(/C(=O)NC2CC2)c2ccccc2F)cc1)NCCCCCC(=O)NO [Example 78, 6-((1E)-3-(4-(3-(Cyclopropylamino)-2-(2-fluorophenyl)-3-oxoprop-1-en-1-yl)phenyl)acrylamido)-N-hydroxyhexanamide]
8.2	2.2	3.2	99.1	100.0	0.014	O=C(/C=C/c1ccc(/C=C(/C(=O)NC2CC2)c2ccc3c(c2)OCO3)cc1)NCCCCCC(=O)NO [Example 79, 6-((1E)-3-(4-(3-(Cyclopropylamino)-2-[benzodioxol-5-yl]-3-oxoprop-1-en-1-yl)phenyl)acrylamido)-N-hydroxyhexanamide]
4	19	0.8	100.0	100.0	< 0.001	O=C(/C=C/c1ccc(/C=C(/C(=O)NC2CC2)c2cccc(Cl)c2)cc1)NCCCCCC(=O)NO [Example 80, 6-((1E)-3-(4-(3-(Cyclopropylamino)-2-(3-chlorophenyl)-3-oxoprop-1-en-1-yl)phenyl)acrylamido)-N-hydroxyhexanamide]
5	11	0.4	97.0	100.0	0.01	Cc1ccc(/C(=C\c2ccc(/C=C/C(=O)NCCCCCC(=O)NO)cc2)C(=O)NC2CC2)cc1 [Example 81, 6-((1E)-3-(4-(3-(Cyclopropylamino)-2-(4-methylphenyl)-3-oxoprop-1-en-1-yl)phenyl)acrylamido)-N-hydroxyhexanamide]
3	1	7	93.2	98.6	0.0085	O=C(/C=C/c1ccc(/C=C(/C(=O)NC2CC2)c2ccccc2)cc1)NCCCCCC(=O)NO [Example 82, 6-((1E)-3-(4-(3-(cyclopropylamino)-2-phenyl-3-oxoprop-1-enyl)phenyl)acrylamido)-N-hydroxyhexanamide]
24	70	24	93.5	96.5		COc1ccc(/C(=C\c2ccc(/C=C/C(=O)NCCCCCC(=O)NO)cc2)C(=O)NC2CC2)cc1 [Example 84, 6-((1E)-3-(4-(3-(Cyclopropylamino)-2-(4-methoxyphenyl)-3-oxoprop-1-en-1-yl)phenyl)acrylamido)-N-hydroxyhexanamide]
26	69	10.1	96.0	100.0		COc1cccc(/C(=C\c2ccc(/C=C/C(=O)NCCCCCC(=O)NO)cc2)C(=O)NC2CC2)c1 [Example 85, 6-((1E)-3-(4-(3-(Cyclopropylamino)-2-(3-methoxyphenyl)-3-oxoprop-1-en-1-yl)phenyl)acrylamido)-N-hydroxyhexanamide]
19	50	10.5	95.6	98.6		O=C(/C=C/c1ccc(/C=C(/C(=O)N2CCOCC2)c2ccc(F)cc2)cc1)NCCCCCC(=O)NO [Example 86, 6-((1E)-3-(4-(3-(Morpholino)-2-(4-fluorophenyl)-3-oxoprop-1-enyl)phenyl)acrylamido)-N-hydroxyhexanamide]
40	70	20	91.0	98.6		O=C(/C=C/c1ccc(/C=C(/C(=O)N2CCOCC2)c2ccccc2F)cc1)NCCCCCC(=O)NO [Example 87, 6-((1E)-3-(4-(3-(Morpholino)-2-(2-fluorophenyl)-3-oxoprop-1-en-1-yl)phenyl)acrylamido)-N-hydroxyhexanamide]
11	> 100	18	97.9	98.8		COc1ccc(/C(=C\c2ccc(/C=C/C(=O)NCCCCCC(=O)NO)cc2)C(=O)NC2CC2)cc1F [Example 88, 6-((1E)-3-(4-(3-(Cyclopropylamino)-2-(3-fluoro-4-methoxyphenyl)-3-oxoprop-1-en-1-yl)phenyl)acrylamido)-N-hydroxyhexanamide]
40	> 100	13	42.1	70.3		O=C(/C=C/c1ccc(/C=C(/C(=O)NC2CC2)c2ccc(F)cc2)cc1)NCc1ccc(C(=O)NO)cc1 [Example 89, 4-(((1E)-3-(4-(3-(Cyclopropylamino)-2-(4-fluorophenyl)-3-oxoprop-1-en-1-yl)phenyl)acrylamido)methyl)-N-hydroxybenzamide]
